Data as given in ChEMBL document CHEMBL4680147, “Discovery of 6'-chloro-N-methyl-5'-(phenylsulfonamido)-[3,3'-bipyridine]-5-carboxamide (CHMFL-PI4K-127) as a novel Plasmodium falciparum PI(4)K inhibitor with potent antimalarial activity against both blood and liver stages of Plasmodium” (Eur J Med Chem, 2020).
Calls of active or inactive are those of the source. The calls are words filed in the database; no cut-off is given here.

How the values were obtained:
Plasmodium falciparum [1] = assay: Antimalarial activity against mefloquine/chloroquine/pyrimethamine resistant Plasmodium falciparum Dd2 infected in human O+ erythrocytes incubated for 72 hrs by SYBR Green 1 dye based fluorescence assay; format: functional, organism-based; details: Dd2, Erythrocyte
[2] = Inhibition of recombinant His-tagged Plasmodium falciparum 3D7 PI4K expressed in baculovirus infected Sf9 cells using PI:PS as substrate incubated for 1 hr in presence of ATP by ADP-Glo kinase assay
[3] = target: Phosphatidylinositol 4,5-bisphosphate 3-kinase catalytic subunit alpha isoform (Homo sapiens, UniProt P42336); assay: Inhibition of human PI3Kalpha by ADP-Glo kinase assay
[4] = target: T1, Phosphatidylinositol 4,5-bisphosphate 3-kinase catalytic subunit delta isoform (Homo sapiens, UniProt O00329); assay: Inhibition of human PI3Kdelta by ADP-Glo kinase assay
T1 sequence (O00329 whole entry): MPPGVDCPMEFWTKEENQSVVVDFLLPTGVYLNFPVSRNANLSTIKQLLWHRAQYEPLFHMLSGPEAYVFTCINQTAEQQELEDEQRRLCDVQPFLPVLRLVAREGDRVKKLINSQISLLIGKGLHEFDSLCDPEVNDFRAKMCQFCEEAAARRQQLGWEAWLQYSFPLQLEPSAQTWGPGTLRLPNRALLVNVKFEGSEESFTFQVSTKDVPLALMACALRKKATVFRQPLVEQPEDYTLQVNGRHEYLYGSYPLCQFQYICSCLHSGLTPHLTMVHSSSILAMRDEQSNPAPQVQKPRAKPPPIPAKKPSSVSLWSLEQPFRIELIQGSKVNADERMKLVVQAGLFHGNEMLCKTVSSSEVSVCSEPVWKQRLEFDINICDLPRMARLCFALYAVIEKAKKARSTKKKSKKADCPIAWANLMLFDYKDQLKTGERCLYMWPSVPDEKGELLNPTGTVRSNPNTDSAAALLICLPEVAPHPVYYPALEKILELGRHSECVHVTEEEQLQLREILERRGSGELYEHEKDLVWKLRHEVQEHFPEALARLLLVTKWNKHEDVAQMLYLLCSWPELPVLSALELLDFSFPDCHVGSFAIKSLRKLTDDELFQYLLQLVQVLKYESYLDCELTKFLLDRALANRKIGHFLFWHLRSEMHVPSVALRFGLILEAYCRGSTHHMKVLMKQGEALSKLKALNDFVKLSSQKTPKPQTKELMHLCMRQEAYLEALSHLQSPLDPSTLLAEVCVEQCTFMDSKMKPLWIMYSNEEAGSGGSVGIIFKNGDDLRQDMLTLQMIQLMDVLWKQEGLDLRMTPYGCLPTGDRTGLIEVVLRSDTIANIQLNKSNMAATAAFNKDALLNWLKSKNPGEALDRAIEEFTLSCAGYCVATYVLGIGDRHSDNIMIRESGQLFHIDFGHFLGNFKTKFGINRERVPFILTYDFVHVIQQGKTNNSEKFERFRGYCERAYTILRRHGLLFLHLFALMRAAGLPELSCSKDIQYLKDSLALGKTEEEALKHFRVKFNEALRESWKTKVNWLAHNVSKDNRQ

[5] = target: Phosphatidylinositol 4,5-bisphosphate 3-kinase catalytic subunit gamma isoform (Homo sapiens, UniProt P48736); assay: Inhibition of human PI3Kgamma by ADP-Glo kinase assay
[6] = target: Phosphatidylinositol 4-phosphate 3-kinase C2 domain-containing subunit beta (Homo sapiens, UniProt O00750); assay: Inhibition of human PIK3C2beta by ADP-Glo kinase assay
[7] = target: Phosphatidylinositol 3-kinase catalytic subunit type 3 (Homo sapiens, UniProt Q8NEB9); assay: Inhibition of human VPS34 by ADP-Glo kinase assay
[8] = target: Phosphatidylinositol 4-kinase alpha (Homo sapiens, UniProt P42356); assay: Inhibition of human PI4K3alpha by ADP-Glo kinase assay
[9] = target: Phosphatidylinositol 4-kinase beta (Homo sapiens, UniProt Q9UBF8); assay: Inhibition of human PI4K3beta by ADP-Glo kinase assay
[10] = Selectivity index, ratio of IC50 for human PI3Kdelta to IC50 for recombinant His-tagged Plasmodium falciparum 3D7 PI4K expressed in baculovirus infected Sf9 cells
[11] = Selectivity index, ratio of IC50 for human PI3Kgamma to IC50 for recombinant His-tagged Plasmodium falciparum 3D7 PI4K expressed in baculovirus infected Sf9 cells
[12] = Selectivity index, ratio of IC50 for human PI3Kbeta to IC50 for recombinant His-tagged Plasmodium falciparum 3D7 PI4K expressed in baculovirus infected Sf9 cells
[13] = Selectivity index, ratio of IC50 for human VPS34 to IC50 for recombinant His-tagged Plasmodium falciparum 3D7 PI4K expressed in baculovirus infected Sf9 cells
Plasmodium falciparum [14] = assay: Antimalarial activity against artemisinin resistant Plasmodium falciparum 803 infected in human O+ erythrocytes incubated for 72 hrs by SYBR Green 1 dye based fluorescence assay; format: functional, organism-based; details: Plasmodium falciparum, 803, Erythrocyte
Plasmodium falciparum [15] = assay: Antimalarial activity against pyrimethamine/chloroquine resistant Plasmodium falciparum PC26 infected in human O+ erythrocytes incubated for 72 hrs by SYBR Green 1 dye based fluorescence assay; format: functional, organism-based; details: PC26, Erythrocyte
Plasmodium falciparum [16] = assay: Antimalarial activity against blood stage Plasmodium falciparum harboring PI4K Y1342I mutant infected in human O+ erythrocytes incubated for 72 hrs by SYBR Green 1 dye based fluorescence assay; format: functional, organism-based; details: Erythrocyte
Plasmodium falciparum [17] = assay: Antimalarial activity against blood stage Plasmodium falciparum harboring PI4K Y1342I/T1360A mutant infected in human O+ erythrocytes incubated for 72 hrs by SYBR Green 1 dye based fluorescence assay; format: functional, organism-based; details: Erythrocyte
[18] = AUC(0 to t) in Sprague-Dawley rat at 1 mg/kg, iv; format: ADME, organism-based; parameters: dose 1 mg/kg; details: in vivo
[19] = AUC(0 to t) in Sprague-Dawley rat at 10 mg/kg, po; format: ADME, organism-based; parameters: dose 10 mg/kg; details: in vivo
[20] = AUC(0 to infinity) in Sprague-Dawley rat at 1 mg/kg, iv; format: ADME, organism-based; parameters: time infinity, route intravenous, dose 1 mg/kg; details: in vivo
[21] = Cmax in Sprague-Dawley rat at 1 mg/kg, iv; format: ADME, organism-based; parameters: route intravenous, dose 1 mg/kg; details: in vivo
[22] = Cmax in mouse at 10 mg/kg, po; format: ADME, organism-based; parameters: route oral, dose 10 mg/kg; details: in vivo
[23] = Apparent volume of distribution in Sprague-Dawley rat at 10 mg/kg, po; format: ADME, organism-based; details: in vivo
[24] = Apparent volume of distribution in mouse at 1 mg/kg, iv; format: ADME, organism-based; details: in vivo, read-out: Vz
[25] = Apparent clearance in mouse at 1 mg/kg, iv; format: ADME, organism-based; details: in vivo, read-out: CL(app) (converted)
[26] = Tmax in Sprague-Dawley rat at 1 mg/kg, iv; format: ADME, organism-based; details: in vivo
[27] = Half life in Sprague-Dawley rat at 10 mg/kg, po; format: ADME, organism-based; details: in vivo
[28] = Oral bioavailability in Sprague-Dawley rat at 10 mg/kg; format: ADME, organism-based; details: in vivo
[29] = Oral bioavailability in mouse at 10 mg/kg; format: ADME, organism-based; details: in vivo
Plasmodium yoelii = assay: Antimalarial activity against blood stage Plasmodium yoelii infected in BALB/c mouse assessed as suppression of parasitemia at 60 mg/kg/day, po administered for 7 consecutive days starting from 1 day post-infection and observed for 20 days by Giemsa-staining based microscopic analysis; format: functional, organism-based; details: time 20.0 day

Sequence of Phosphatidylinositol 4,5-bisphosphate 3-kinase catalytic subunit alpha isoform (P42336 whole entry, canonical isoform): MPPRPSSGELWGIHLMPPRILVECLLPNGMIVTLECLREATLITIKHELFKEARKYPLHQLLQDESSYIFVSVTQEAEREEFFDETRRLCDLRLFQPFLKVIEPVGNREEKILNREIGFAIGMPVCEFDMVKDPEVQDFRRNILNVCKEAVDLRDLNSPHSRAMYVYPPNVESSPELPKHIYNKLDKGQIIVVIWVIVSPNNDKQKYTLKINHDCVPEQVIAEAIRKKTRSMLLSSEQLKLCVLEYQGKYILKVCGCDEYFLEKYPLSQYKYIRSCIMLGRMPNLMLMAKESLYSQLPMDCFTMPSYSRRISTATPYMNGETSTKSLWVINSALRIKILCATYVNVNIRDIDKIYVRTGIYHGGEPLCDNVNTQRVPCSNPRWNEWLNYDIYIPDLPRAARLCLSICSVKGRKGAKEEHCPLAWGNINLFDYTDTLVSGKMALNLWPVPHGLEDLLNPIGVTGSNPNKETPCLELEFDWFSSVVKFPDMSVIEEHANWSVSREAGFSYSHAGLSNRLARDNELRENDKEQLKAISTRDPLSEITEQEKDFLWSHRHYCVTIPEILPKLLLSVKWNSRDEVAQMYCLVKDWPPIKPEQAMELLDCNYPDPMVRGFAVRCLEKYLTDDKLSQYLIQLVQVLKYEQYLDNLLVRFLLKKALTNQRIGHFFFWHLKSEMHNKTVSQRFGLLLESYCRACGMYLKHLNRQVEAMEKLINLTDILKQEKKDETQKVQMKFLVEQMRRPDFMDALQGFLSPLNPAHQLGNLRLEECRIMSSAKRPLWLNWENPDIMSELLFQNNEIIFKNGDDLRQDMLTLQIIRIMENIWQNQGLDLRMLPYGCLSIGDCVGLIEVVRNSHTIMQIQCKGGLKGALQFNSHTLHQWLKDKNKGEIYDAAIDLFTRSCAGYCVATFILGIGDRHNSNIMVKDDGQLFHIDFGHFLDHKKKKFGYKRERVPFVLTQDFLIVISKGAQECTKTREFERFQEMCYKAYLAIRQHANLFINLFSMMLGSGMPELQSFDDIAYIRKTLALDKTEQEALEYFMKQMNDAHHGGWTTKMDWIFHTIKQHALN
Sequence of Phosphatidylinositol 4-phosphate 3-kinase C2 domain-containing subunit beta (O00750 whole entry, the tested form may be a part): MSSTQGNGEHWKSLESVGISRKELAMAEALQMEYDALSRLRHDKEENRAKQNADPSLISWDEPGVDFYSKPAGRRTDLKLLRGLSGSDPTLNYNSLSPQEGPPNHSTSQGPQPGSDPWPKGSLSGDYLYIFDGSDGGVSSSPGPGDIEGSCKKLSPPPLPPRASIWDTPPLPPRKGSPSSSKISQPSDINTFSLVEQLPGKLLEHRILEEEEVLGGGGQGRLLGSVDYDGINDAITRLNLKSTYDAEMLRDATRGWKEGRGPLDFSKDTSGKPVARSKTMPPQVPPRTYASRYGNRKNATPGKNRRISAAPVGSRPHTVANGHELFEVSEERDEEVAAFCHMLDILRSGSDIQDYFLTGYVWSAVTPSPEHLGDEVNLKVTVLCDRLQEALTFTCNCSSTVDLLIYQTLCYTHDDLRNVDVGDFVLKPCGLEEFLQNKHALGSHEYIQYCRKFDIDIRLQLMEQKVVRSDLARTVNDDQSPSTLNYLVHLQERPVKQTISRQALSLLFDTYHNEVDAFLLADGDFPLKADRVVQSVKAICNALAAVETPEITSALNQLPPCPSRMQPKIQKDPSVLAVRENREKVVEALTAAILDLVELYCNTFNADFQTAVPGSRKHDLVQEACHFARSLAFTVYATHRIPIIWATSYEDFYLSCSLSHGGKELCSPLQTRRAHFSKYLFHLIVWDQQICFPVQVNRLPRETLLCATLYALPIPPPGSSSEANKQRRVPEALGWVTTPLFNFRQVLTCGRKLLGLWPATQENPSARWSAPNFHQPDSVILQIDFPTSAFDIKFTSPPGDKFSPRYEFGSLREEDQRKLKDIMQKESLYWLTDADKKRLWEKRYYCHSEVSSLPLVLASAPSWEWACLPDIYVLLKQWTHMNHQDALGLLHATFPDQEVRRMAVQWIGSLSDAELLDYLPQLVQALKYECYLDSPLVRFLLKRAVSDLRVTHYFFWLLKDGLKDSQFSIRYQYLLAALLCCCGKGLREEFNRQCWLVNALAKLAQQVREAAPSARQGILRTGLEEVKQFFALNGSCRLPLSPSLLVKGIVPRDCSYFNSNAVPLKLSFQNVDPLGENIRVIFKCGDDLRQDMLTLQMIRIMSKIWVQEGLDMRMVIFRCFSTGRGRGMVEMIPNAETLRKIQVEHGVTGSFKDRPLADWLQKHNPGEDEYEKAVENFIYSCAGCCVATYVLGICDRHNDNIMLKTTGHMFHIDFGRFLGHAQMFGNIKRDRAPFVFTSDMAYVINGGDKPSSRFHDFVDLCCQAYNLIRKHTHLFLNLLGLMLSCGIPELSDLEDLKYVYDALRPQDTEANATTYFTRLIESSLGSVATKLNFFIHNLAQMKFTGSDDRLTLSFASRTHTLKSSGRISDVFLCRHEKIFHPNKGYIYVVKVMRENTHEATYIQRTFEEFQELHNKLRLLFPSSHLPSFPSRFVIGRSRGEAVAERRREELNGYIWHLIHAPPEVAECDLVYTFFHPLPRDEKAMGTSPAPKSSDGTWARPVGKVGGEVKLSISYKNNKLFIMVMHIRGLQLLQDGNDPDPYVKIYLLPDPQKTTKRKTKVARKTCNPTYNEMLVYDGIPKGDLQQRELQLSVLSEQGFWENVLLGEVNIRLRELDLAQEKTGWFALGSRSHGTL
Sequence of Phosphatidylinositol 3-kinase catalytic subunit type 3 (Q8NEB9 whole entry): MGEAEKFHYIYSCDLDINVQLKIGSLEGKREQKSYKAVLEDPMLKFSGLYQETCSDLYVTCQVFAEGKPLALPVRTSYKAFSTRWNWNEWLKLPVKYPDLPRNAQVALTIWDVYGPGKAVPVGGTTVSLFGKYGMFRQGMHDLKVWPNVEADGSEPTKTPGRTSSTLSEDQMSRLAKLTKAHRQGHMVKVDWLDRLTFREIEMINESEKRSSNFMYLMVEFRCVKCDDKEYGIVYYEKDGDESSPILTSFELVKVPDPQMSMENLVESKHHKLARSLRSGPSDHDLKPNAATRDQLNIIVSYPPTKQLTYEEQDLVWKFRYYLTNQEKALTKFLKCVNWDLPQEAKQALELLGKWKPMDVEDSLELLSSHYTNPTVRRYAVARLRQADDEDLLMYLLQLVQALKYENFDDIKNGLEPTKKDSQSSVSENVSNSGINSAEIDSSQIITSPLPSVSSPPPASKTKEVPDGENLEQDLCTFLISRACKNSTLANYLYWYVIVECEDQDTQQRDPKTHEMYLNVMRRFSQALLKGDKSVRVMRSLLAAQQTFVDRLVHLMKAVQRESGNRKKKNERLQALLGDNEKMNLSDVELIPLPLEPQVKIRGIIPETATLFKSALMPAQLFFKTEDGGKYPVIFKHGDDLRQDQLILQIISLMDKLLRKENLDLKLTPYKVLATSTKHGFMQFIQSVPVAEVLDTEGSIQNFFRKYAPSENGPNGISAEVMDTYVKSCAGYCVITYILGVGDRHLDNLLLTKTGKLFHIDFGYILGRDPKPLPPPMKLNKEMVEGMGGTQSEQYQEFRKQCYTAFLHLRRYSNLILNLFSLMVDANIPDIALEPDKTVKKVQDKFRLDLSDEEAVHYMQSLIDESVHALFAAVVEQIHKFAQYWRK
Sequence of Phosphatidylinositol 4,5-bisphosphate 3-kinase catalytic subunit gamma isoform (P48736 whole entry, the tested form may be a part, canonical isoform): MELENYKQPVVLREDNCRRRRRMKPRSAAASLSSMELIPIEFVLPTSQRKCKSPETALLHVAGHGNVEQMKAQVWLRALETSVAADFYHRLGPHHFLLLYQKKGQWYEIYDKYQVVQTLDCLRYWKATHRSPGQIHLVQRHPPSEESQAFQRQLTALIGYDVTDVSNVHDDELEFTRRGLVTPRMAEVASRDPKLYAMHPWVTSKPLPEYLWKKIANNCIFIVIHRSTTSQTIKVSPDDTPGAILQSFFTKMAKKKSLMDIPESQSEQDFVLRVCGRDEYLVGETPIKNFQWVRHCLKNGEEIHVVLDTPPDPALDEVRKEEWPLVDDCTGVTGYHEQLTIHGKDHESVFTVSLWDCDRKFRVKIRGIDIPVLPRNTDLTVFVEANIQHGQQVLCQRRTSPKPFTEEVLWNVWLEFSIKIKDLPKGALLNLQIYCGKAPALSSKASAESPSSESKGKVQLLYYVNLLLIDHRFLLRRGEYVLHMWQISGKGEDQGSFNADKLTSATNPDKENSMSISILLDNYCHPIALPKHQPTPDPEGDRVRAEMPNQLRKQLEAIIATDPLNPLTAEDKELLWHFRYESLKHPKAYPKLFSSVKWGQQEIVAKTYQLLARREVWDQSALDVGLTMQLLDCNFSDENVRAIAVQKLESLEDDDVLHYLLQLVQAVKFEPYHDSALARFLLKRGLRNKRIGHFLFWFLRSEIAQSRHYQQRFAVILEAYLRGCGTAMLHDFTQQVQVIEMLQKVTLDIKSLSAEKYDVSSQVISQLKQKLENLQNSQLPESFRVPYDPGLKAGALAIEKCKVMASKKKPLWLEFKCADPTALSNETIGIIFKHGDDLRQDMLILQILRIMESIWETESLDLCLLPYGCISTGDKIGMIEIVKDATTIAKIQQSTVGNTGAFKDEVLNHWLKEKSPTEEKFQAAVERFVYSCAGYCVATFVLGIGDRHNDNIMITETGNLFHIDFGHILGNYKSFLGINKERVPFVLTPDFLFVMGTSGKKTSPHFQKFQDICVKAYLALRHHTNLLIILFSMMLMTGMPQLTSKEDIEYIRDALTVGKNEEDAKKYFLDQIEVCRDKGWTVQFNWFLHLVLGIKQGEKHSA

`CNC(=O)c1cncc(-c2cnc(Cl)c(NS(=O)(=O)c3ccccc3)c2)c1` showed an EC50 (Plasmodium falciparum [1]) of 30.3 nM, an IC50 [2] of 0.9 nM and an IC50 [3] of 191 nM. The IC50 [4] was 104 nM, the IC50 [5] was 324 nM and the IC50 [6] was over 10000 nM. It also gave an IC50 [7] of 681 nM, an IC50 [8] of 165 nM and an IC50 [9] of 433 nM. For the same compound, the Ratio IC50 [10] was 100, the Ratio IC50 [11] was 100 and the Ratio IC50 [12] was 400. The Ratio IC50 [13] was 400, the EC50 (Plasmodium falciparum [14]) was 30.9 nM and the EC50 (Plasmodium falciparum [15]) was 44 nM. It also gave an EC50 (Plasmodium falciparum [16]) of 10.2 nM, an EC50 (Plasmodium falciparum [17]) of 248 nM and an AUC(0-t) [18] of 2160 ng·h/mL. It also gave an AUC(0-t) [19] of 19300 ng·h/mL, an AUC(0-inf) [20] of 2170 ng·h/mL and a Cmax [21] of 5010 ng/mL. The Cmax [22] was 1540 ng/mL, the Vz [23] was 2.2 L/kg and the Vd [24] was 12.1 L/kg. The clearance [25] was 51.7 mL/min/kg, the Tmax [26] was 1.2 min and the half-life [27] was 2.9 h. For the same compound, the bioavailability [28] was 89%, the bioavailability [29] was 80% and the Activity (Plasmodium yoelii) was “Active”.
